This is an account of results in paper PMC6093421, “Identification and characterization of terpene synthase genes accounting for volatile terpene emissions in flowers of Freesia x hybrida” (Journal of Experimental Botany, 2018).

The assay relates to T1, FhTPS7.
T1 construct: gene TPS7; full-length ORF (570 residues, no transit peptide, TPS-a clade) in pET-32a, E. coli BL21 (DE3), Ni-purified
Nature of the assay: GC-MS of hexane-extracted products, Michaelis-Menten non-linear fit. Particulars: 25 mM HEPES pH 7.4, 15 mM MgCl2, 5 mM DTT, 30 °C, 20 min. The format is biochemical, Freesia x hybrida. The text has this:
GC-MS of hexane-extracted products, Michaelis-Menten non-linear fit on FhTPS7

Take `CC(C)=CCC/C(C)=C/CC/C(C)=C/COP(=O)(O)OP(=O)(O)O` [FPP, farnesyl diphosphate]: where the note is “FPP 1–135 μM”, the Km was found to be 5.01 ± 0.21 µM.

On to `CC(C)=CCC/C(C)=C/COP(=O)(O)OP(=O)(O)O` [GPP, geranyl diphosphate], for which the Km (GPP 3–270 μM) was 3.71 ± 0.19 µM.
